Assays:
[1] = tested on: gray mold fungi (Botrytis cinerea); test: Test Example B: tomato gray mold, spray treatment of tomato plants; details: in Solanum lycopersicum, read-out: Test B control value class (tomato gray mold)
Description: [Test Example B] Tomato Gray Mold
Test plants (tomato variety: Oogata Fukuju) were cultivated until three to five first leaves (true leaves) appeared after the sowing of seeds. In the test, the chemical solution was obtained by dissolving the compound of the present invention in a dimethylsulfoxide-methanol mixed solvent (volume ratio: 9/1) and appropriately diluting the resultant solution with well water so that the concentration was 250 ppm. The obtained chemical solution was sprayed to the test plants (2.5 ml/pot). The plants after the drying of the chemical liquid were inoculated with gray mold fungi (Botrytis cinerea) by spraying a conidial suspension of 4 to 8×10^5 conidia/ml. After the inoculation, the plants were allowed to stand, for about 48 hours, in a moist chamber with the room temperature of 20 to 23° C. to promote the onset of disease. The degree of disease development after 2 to 3 days from the inoculation was investigated to evaluate the effect of the chemical solution.
(§1) With respect to each Test Example described above, the degree of disease development was evaluated as a value with increments of 0.05, regarding the degree of disease development for plants with no onset of disease as 0 and that for plants of untreated group as 3. Further, from the degrees of disease development, a control value was calculated according to the calculation formula below.
(§2) n=Degree of disease development of each chemical treated group

[2] = tested on: tomato late blight fungi (Phytophthora infestans); test: whole plant or invertebrate; format: in vivo; details: read-out: Test F control value class (tomato late blight)
[3] = tested on: cabbage Alternaria sooty spot fungi (Alternaia brassicicola); test: Test Example C: cabbage Alternaria sooty spot, spray treatment of cabbage plants; format: in vivo; details: control value=100{1-(n/3)}, read-out: Test C control value class (cabbage Alternaria sooty spot)
Description: [Test Example C] Cabbage Alternaria Sooty Spot
Test plants (cabbage variety: Shikidori) were cultivated until the cotyledons extended after the sowing of seeds.
<Control Value> Control value=100{1−(n/3)}

[4] = tested on: rice blast fungi (Magnaporthe grisea); test: whole plant or invertebrate; format: in vivo; details: Pyricularia oryzae, read-out: Test A control value class (rice blast)
[5] = tested on: cucumber anthracnose fungi (Colletotrichum orbiculare); test: Test Example H: cucumber anthracnose, spray treatment of cucumber plants; details: in Cucumis sativus, read-out: Test H control value class (cucumber anthracnose)
Description: [Test Example H] Cucumber Anthracnose
Test plants (cucumber variety: Sagami Hanjiro) were cultivated until one first leaf appeared after the sowing of seeds. In the test, the chemical solution was obtained by dissolving the compound of the present invention in a dimethylsulfoxide-methanol mixed solvent (volume ratio: 9/1) and appropriately diluting the resultant solution with well water so that the concentration was 250 ppm. The obtained chemical solution was sprayed to the test plants (2.5 ml/pot). The plants after the drying of the chemical liquid were inoculated with cucumber anthracnose fungi (Colletotrichum orbiculare) by spraying a conidial suspension of 2 to 4×10^5 conidia/ml. After the inoculation, the plants were allowed to stand, for about 24 hours, in a moist chamber with the room temperature of 20 to 23° C. to promote the onset of disease. The degree of disease development after 6 to 10 days from the inoculation was investigated to evaluate the effect of the chemical solution.
as §1, §2

[6] = tested on: wheat brown rust fungi (Puccinia recondita); test: Test Example E: wheat brown rust, spray treatment of wheat plants; format: in vivo; details: control value=100{1-(n/3)}, read-out: Test E control value class (wheat brown rust)
[7] = tested on: grape downy mildew fungus (Plasmopara viticola); test: Test Example G: grape downy mildew, spray treatment of grape plants; details: read-out: Test G control value class (grape downy mildew)
Description: Test plants (grape variety: Neomuscat) were cultivated until three to four first leaves appeared after the sowing of seeds. In the test, the chemical solution was obtained by dissolving the compound of the present invention in a dimethylsulfoxide-methanol mixed solvent (volume ratio: 9/1) and appropriately diluting the resultant solution with well water so that the concentration was 250 ppm. The obtained chemical solution was sprayed to the test plants (2.5 ml/pot). The plants after the drying of the chemical liquid were inoculated with grape downy mildew fungus (Plasmopara viticola) by spraying a zoosporangial suspension of 1 to 2×10^4 zoosporangia/ml. After the inoculation, the plants were allowed to stand, for about 24 hours, in a moist chamber with the room temperature of 20° C. to promote the onset of disease. The degree of disease development after 7 to 10 days from the inoculation was investigated to evaluate the effect of the chemical solution.
as §1, §2

SMILES	pest or weed control at 250 µg/mL [1]	pest or weed control at 250 µg/mL [2]	pest or weed control at 250 µg/mL [3]	pest or weed control at 250 µg/mL [4]	pest or weed control at 250 ppm [5]	pest or weed control at 250 µg/mL [6]	pest or weed control at 250 ppm [7]
O=c1c(Br)cn(-c2ccccc2Cl)c(-c2c(F)cc(F)cc2F)c1Br [Compound 1, 3,5-dibromo-1-(2-chlorophenyl)-2-(2,4,6-trifluorophenyl)pyridin-4(1H)-one]	> 50%	< 50%	> 50%	> 50%	> 50%	> 50%	> 50%
O=c1c(Br)cn(-c2ccccc2Cl)c(-c2c(F)cc(F)cc2F)c1Cl [Compound 2, 5-bromo-3-chloro-1-(2-chlorophenyl)-2-(2,4,6-trifluorophenyl)pyridin-4(1H)-one]	> 50%	< 50%	> 50%	> 50%	> 50%	> 50%	> 50%
Cc1ccccc1-n1cc(C)c(=O)c(C)c1-c1c(F)cc(F)cc1F [Compound 174, 3,5-dimethyl-1-(o-toluyl)-2-(2,4,6-trifluorophenyl)pyridin-4(1H)-one]	> 50%	< 50%	> 50%	> 50%	> 50%	> 50%	> 50%
Cc1onc(-n2cc(Cl)c(=O)c(Br)c2-c2c(F)cc(F)cc2F)c1Br [Compound 142, 3-bromo-1-(4-bromo-5-methylisoxazol-3-yl)-5-chloro-2-(2,4,6-trifluorophenyl)pyridin-4(1H)-one]	> 50%	> 50%	> 50%	> 50%	> 50%	> 50%	> 50%
O=c1c(Br)cn(-c2cccnc2Cl)c(-c2c(F)cc(F)cc2F)c1Br [Compound 38, 3,5-dibromo-2′-chloro-2-(2,4,6-trifluorophenyl)-4H-[1,3′-bipyridin]-4-one]	> 50%	> 50%	> 50%	> 50%	> 50%	> 50%	> 50%
CCC(C)Cn1cc(Cl)c(=O)c(Cl)c1-c1c(F)cc(F)cc1F (centres unmarked) [Compound 162, 3,5-dichloro-1-(2-methylbutyl)-2-(2,4,6-trifluorophenyl)pyridin-4(1H)-one]	> 50%	< 50%	> 50%	> 50%	> 50%	> 50%	> 50%
O=c1c(Cl)cn(-c2ccccc2Cl)c(-c2c(F)cc(F)cc2F)c1Cl [Compound 4, 3,5-dichloro-1-(2-chlorophenyl)-2-(2,4,6-trifluorophenyl)pyridin-4(1H)-one]	> 50%	< 50%	> 50%	> 50%	> 50%	> 50%	> 50%
COc1cc(F)c(-c2c(Cl)c(=O)c(Cl)cn2-c2ccccc2Cl)c(F)c1 [Compound 5, 3,5-dichloro-1-(2-chlorophenyl)-2-(2,6-difluoro-4-methoxyphenyl)pyridin-4(1H)-one]	> 50%	< 50%	> 50%	> 50%	> 50%	> 50%	> 50%
O=c1c(Cl)cn(Cc2ccccc2)c(-c2c(F)cc(F)cc2F)c1Br [Compound 49, 1-benzyl-3-bromo-5-chloro-2-(2,4,6-trifluorophenyl)pyridin-4(1H)-one]	> 50%	> 50%	> 50%	> 50%	> 50%	> 50%	> 50%
COc1cc(F)c(-c2c(C)c(=O)c(C)cn2-c2ccccc2C)c(F)c1 [Compound 175, 2-(2,6-difluoro-4-methoxyphenyl)-3,5-dimethyl-1-(o-toluyl)pyridin-4(1H)-one]	> 50%	< 50%	> 50%	> 50%	> 50%	> 50%	> 50%
Cc1cc(-n2cc(Cl)c(=O)c(Br)c2-c2c(F)cc(F)cc2F)no1 [Compound 141, 3-bromo-5-chloro-1-(5-methylisoxazol-3-yl)-2-(2,4,6-trifluorophenyl)pyridin-4(1H)-one]	> 50%	< 50%	> 50%	< 50%	< 50%	> 50%	< 50%

Source: US11000038B2, “Pyridone compounds and agricultural and horticultural fungicides containing the same as active ingredients” (priority 2017, dated 2021)
